# Measurements taken from patent publication US20250092031A1, “RIPK3 INHIBITORS AND METHODS OF USE” (Momentum Therapeutics, Inc., priority 2023, published 2025).
# Assays:
# [1] = target: T1, RIPK3 (Homo sapiens, UniProt Q9Y572); test: RIPK3 kinase assay (radiometric HotSpot, Reaction Biology Corporation); format: biochemical
# T1 construct: purchased Reaction Biology Corporation (RBC), Malvern, USA (contract assay service)
# Description: The assays were performed in Reaction Biology Corporation (RBC), Malvern, USA. Compounds were diluted with DMSO to a final stock concentration of 10 mM and then were tested in a 10-dose IC50 mode with a 3-fold serial dilution starting at […]. All the reactions were carried out at 10 μM ATP and MBP 20 μM as substrates. RIPK3 activity was determined using radiometric HotSpot™ kinase assay protocol and IC50 values were calculated use GraphPad Prism software.
# [2] = system: Murine L929 cells; test: Necroptosis inhibition assay in L929 cells (mTNFα + zVAD, Sytox Green); format: cell-based; settings: Mus musculus, 10 ng/ml mTNFα and 20 μM zVAD, 6 hours, Sytox Green fluorescence
# How it was run: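 Murine L929 cells, treated 48 h after seeding with 10 ng/ml mTNFα plus 20 μM zVAD and compound ([…]), 6 h at 37° C. Necroptosis read by Sytox Green fluorescence (500ex/530em), scaled between 0.1% DMSO and TNFα+zVAD wells; IC50 from inhibition curves.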
# [3] = system: Human HT-29 cells; test: Necroptosis inhibition assay in HT-29 cells (hTNFα + zVAD + SMAC mimetic, Sytox Green/Hoechst); format: cell-based; settings: 10 ng/ml hTNFα, 20 μM zVAD and 100 nM SMAC mimetic, 6 hours, Sytox/Hoechst positive cells, read-out: HT29 necroptosis inhibition IC50
# Description: Human HT-29 cells (ATCC-HTB-38) were seeded at 10,000 cells/well in a 96-well plate. Cells were treated 48 hours after seeding with 10 ng/ml hTNFα (R&D Systems), 20 μM zVAD (ChemShuttle) and 100 nM SMAC mimetic (MedChem Express) in the presence of different concentrations of compounds ranging from […] to 0.01 μM. Cells treated with 0.1% DMSO or cells treated with TNFα+zVAD+SMAC mimetic were used as control and vehicle respectively.
# Assay plates containing cells were incubated for 6 hours at 37° C. and 5% CO2. Necroptosis was assessed using Sytox Green Nucleic Acid Stain (Invitrogen) and Hoechst staining. After incubation, 100 μL of Sytox dye at 2 μM (2×) diluted in HBSS 1× was added to each well. At the same time, Hoechst stain is added to a final concentration of 10 μM and incubated for 15 min at room temperature. Images were taken for Sytox and Hoechst using the Cytation 5 microplate reader with DAPI and GFP filter cubes (Biotek). Sytox and Hoechst positive cells were counted with CellProfiler software.
# Percentage of necroptosis inhibition was calculated as the percent compared to control and vehicle conditions which correspond to 100% and 0% respectively. The half-maximum necroptosis inhibition (IC50) levels were calculated using GraphPad Prism software and are shown in Table 3 (NT represents compound not tested).
# T1 sequence (Q9Y572 whole entry): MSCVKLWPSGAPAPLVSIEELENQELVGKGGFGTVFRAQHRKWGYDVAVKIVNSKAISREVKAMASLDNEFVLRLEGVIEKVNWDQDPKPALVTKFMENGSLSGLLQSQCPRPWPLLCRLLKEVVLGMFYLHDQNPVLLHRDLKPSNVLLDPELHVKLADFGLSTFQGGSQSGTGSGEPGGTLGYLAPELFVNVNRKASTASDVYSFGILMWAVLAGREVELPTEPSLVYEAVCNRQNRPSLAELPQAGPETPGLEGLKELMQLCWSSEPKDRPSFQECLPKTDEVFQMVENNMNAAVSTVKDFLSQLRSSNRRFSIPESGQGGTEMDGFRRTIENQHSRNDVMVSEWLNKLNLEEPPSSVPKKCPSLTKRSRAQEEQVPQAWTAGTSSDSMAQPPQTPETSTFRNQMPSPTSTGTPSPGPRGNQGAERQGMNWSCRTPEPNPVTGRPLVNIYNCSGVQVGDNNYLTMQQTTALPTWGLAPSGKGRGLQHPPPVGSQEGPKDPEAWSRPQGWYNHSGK
IC50 [1],Structure (SMILES),IC50 [2],IC50 [3]
0.00258 µM,"CN1CCN(Cc2ccc(-c3ccc4nccc(Nc5ccc6scnc6c5)c4c3)cc2)CC1 [Compound 1, N-(6-(4-((4-methylpiperazin-1-yl)methyl)phenyl)quinolin-4-yl)benzo[d]thiazol-5-amine]",0.341 µM,0.334 µM
0.00129 µM,"CN1CCN(Cc2ccc(-c3ccc4nccc(Nc5ccc6scnc6c5)c4c3)c(F)c2)CC1 [Compound 11, N-(6-(2-fluoro-4-((4-methylpiperazin-1-yl)methyl)phenyl)quinolin-4-yl)benzo[d]thiazol-5-amine]",0.333 µM,0.102 µM
0.00167 µM,"O=C1CN(Cc2ccc(-c3ccc4nccc(Nc5ccc6scnc6c5)c4c3)c(F)c2)CCN1 [Compound 12, 4-(4-(4-(benzo[d]thiazol-5-ylamino)quinolin-6-yl)-3-fluorobenzyl)piperazin-2-one]",0.776 µM,0.208 µM
0.00172 µM,"CN1CCN(Cc2ccc(-c3ccc4nccc(Nc5ccc6scnc6c5)c4c3)c(F)c2)CC1=O [Compound 13, 4-(4-(4-(benzo[d]thiazol-5-ylamino)quinolin-6-yl)-3-fluorobenzyl)-1-methylpiperazin-2-one]",1.13 µM,0.317 µM
0.00299 µM,"Fc1cc(CN2CCCCC2)ccc1-c1ccc2nccc(Nc3ccc4scnc4c3)c2c1 [Compound 14, N-(6-(2-fluoro-4-(piperidin-1-ylmethyl)phenyl)quinolin-4-yl)benzo[d]thiazol-5-amine]",0.492 µM,0.565 µM
0.00357 µM,"CN1CCN(c2ccc(-c3ccc4nccc(Nc5ccc6scnc6c5)c4c3)cc2)CC1 [Compound 15, N-(6-(4-(4-methylpiperazin-1-yl)phenyl)quinolin-4-yl)benzo[d]thiazol-5-amine]",1.19 µM,> 1 µM
0.00051 µM,"CN1CCN(Cc2ccc(-c3ccc4c(Nc5ccc6scnc6c5)ccnc4c3)cc2)CC1 [Compound 16, N-(7-(4-((4-methylpiperazin-1-yl)methyl)phenyl)quinolin-4-yl)benzo[d]thiazol-5-amine]",0.104 µM,0.158 µM
0.00095 µM,"OCCN1CCN(Cc2ccc(-c3ccc4nccc(Nc5ccc6scnc6c5)c4c3)c(F)c2)CC1 [Compound 17, 2-(4-(4-(4-(benzo[d]thiazol-5-ylamino)quinolin-6-yl)-3-fluorobenzyl)piperazin-1-yl)ethanol]",0.341 µM,0.0971 µM
0.00213 µM,"Fc1cc(CN2CCOCC2)ccc1-c1ccc2nccc(Nc3ccc4scnc4c3)c2c1 [Compound 22, N-(6-(2-fluoro-4-(morpholinomethyl)phenyl)quinolin-4-yl)benzo[d]thiazol-5-amine]",0.316 µM,0.327 µM
0.00221 µM,"Fc1cc(CN2CCCC2)ccc1-c1ccc2nccc(Nc3ccc4scnc4c3)c2c1 [Compound 23, N-(6-(2-fluoro-4-(pyrrolidin-1-ylmethyl)phenyl)quinolin-4-yl)benzo[d]thiazol-5-amine]",0.275 µM,0.302 µM
0.00113 µM,"CN1CCCN(Cc2ccc(-c3ccc4nccc(Nc5ccc6scnc6c5)c4c3)c(F)c2)CC1 [Compound 27, N-(6-(2-fluoro-4-((4-methyl-1,4-diazepan-1-yl)methyl)phenyl)quinolin-4-yl)benzo[d]thiazol-5-amine]",0.669 µM,0.168 µM
0.00347 µM,"CN1CCC(c2ccc(-c3ccc4nccc(Nc5ccc6scnc6c5)c4c3)cc2)CC1 [Compound 28, N-(6-(4-(1-methylpiperidin-4-yl)phenyl)quinolin-4-yl)benzo[d]thiazol-5-amine]",2.59 µM,> 10 µM
0.00231 µM,"CN1CCN(Cc2ccc(-c3ccc4c(Nc5ccc6scnc6c5)ccnc4c3)c(F)c2)CC1 [Compound 29, N-(7-(2-fluoro-4-((4-methylpiperazin-1-yl)methyl)phenyl)quinolin-4-yl)benzo[d]thiazol-5-amine]",0.494 µM,0.341 µM
0.00065 µM,"CN1CCN(C(=O)c2ccc(-c3ccc4c(Nc5ccc6scnc6c5)ccnc4c3)cc2)CC1 [Compound 34, (4-(4-(benzo[d]thiazol-5-ylamino)quinolin-7-yl)phenyl)(4-methylpiperazin-1-yl)methanone]",0.0685 µM,0.119 µM
0.00397 µM,"CN1CCN(C(=O)c2ccc(-c3ccc4nccc(Nc5ccc6scnc6c5)c4c3)cc2)CC1 [Compound 35, (4-(4-(benzo[d]thiazol-5-ylamino)quinolin-6-yl)phenyl)(4-methylpiperazin-1-yl)methanone]",0.818 µM,0.116 µM
0.00128 µM,"CC(C)(C)N1CCN(Cc2ccc(-c3ccc4nccc(Nc5ccc6scnc6c5)c4c3)c(F)c2)CC1 [Compound 36, N-(6-(4-((4-(tert-butyl)piperazin-1-yl)methyl)-2-fluorophenyl)quinolin-4-yl)benzo[d]thiazol-5-amine]",0.318 µM,0.353 µM
0.00179 µM,"CC(C)(C)N1CCN(Cc2ccc(-c3ccc4c(Nc5ccc6scnc6c5)ccnc4c3)c(F)c2)CC1 [Compound 37, N-(7-(4-((4-(tert-butyl)piperazin-1-yl)methyl)-2-fluorophenyl)quinolin-4-yl)benzo[d]thiazol-5-amine]",0.445 µM,0.67 µM
0.0183 µM,"Fc1cc(CN2CCC(F)(F)CC2)ccc1-c1ccc2nccc(Nc3ccc4scnc4c3)c2c1 [Compound 40, N-(6-(4-((4,4-difluoropiperidin-1-yl)methyl)-2-fluorophenyl)quinolin-4-yl)benzo[d]thiazol-5-amine]",1.06 µM,7.87 µM
0.00192 µM,"O=C(c1ccc(-c2ccc3c(Nc4ccc5scnc5c4)ccnc3c2)c(F)c1)N1CCOCC1 [Compound 244, (4-(4-(benzo[d]thiazol-5-ylamino)quinolin-7-yl)-3-fluorophenyl)(morpholino)methanone]",< 1 µM,
,"Fc1cc(CN2CC3(CNC3)C2)ccc1-c1ccc2c(Nc3ccc4scnc4c3)ccnc2c1 [Compound 323, N-(7-(4-((2,6-diazaspiro[3.3]heptan-2-yl)methyl)-2-fluorophenyl)quinolin-4-yl)benzo[d]thiazol-5-amine]",0.454 µM,0.296 µM
,"O=C(c1ccc(-c2ccc3nccc(Nc4ccc5scnc5c4)c3c2)c(F)c1)N1CC2(COC2)C1 [Compound 324, (4-(4-(benzo[d]thiazol-5-ylamino)quinolin-6-yl)-3-fluorophenyl)(2-oxa-6-azaspiro[3.3]heptan-6-yl)methanone]",0.223 µM,0.0765 µM
,"O=C(NC1CCOCC1)c1ccc(-c2ccc3nccc(Nc4ccc5scnc5c4)c3c2)c(F)c1 [Compound 325, 4-(4-(benzo[d]thiazol-5-ylamino)quinolin-6-yl)-3-fluoro-N-(tetrahydro-2H-pyran-4-yl)benzamide]",0.665 µM,0.0697 µM
,"O=C(c1ccc(-c2ccc3nccc(Nc4ccc5scnc5c4)c3c2)cn1)N1CCOCC1 [Compound 326, (5-(4-(benzo[d]thiazol-5-ylamino)quinolin-6-yl)pyridin-2-yl)(morpholino)methanone]",1.79 µM,0.305 µM
,"CN1CCN(Cc2ccc(-c3ccc4c(Nc5ccc6scnc6c5)ccnc4c3)c(F)c2)CC1=O [Compound 327, 4-(4-(4-(benzo[d]thiazol-5-ylamino)quinolin-7-yl)-3-fluorobenzyl)-1-methylpiperazin-2-one]",0.16 µM,0.0252 µM
,"CC(C)S(=O)(=O)c1ccc2nccc(Nc3ccc4scnc4c3)c2c1 [Compound A, N-(6-(isopropylsulfonyl)quinolin-4-yl)benzo[d]thiazol-5-amine, reference compound]",1.96 µM,1.26 µM

Structure (SMILES),IC50 [1],IC50 [2],IC50 [3]
"CN1CCN(Cc2ccc(-c3ccc4nccc(Nc5ccc6scnc6c5)c4c3)cc2F)CC1 [Compound 21, N-(6-(3-fluoro-4-((4-methylpiperazin-1-yl)methyl)phenyl)quinolin-4-yl)benzo[d]thiazol-5-amine]",0.00151 µM,< 10 µM,
"CN1CCN(Cc2ccc(-c3ccc4nccc(Nc5ccc(Cl)c(Cl)c5)c4c3)c(F)c2)CC1 [Compound 31, N-(3,4-dichlorophenyl)-6-(2-fluoro-4-((4-methylpiperazin-1-yl)methyl)phenyl)quinolin-4-amine]",0.00275 µM,1.66 µM,0.523 µM
